Data: patent US11540518B2, “Fungicidal oxadiazoles” (FMC Corporation, priority 2017, dated 2023)

Experiments:
Format in all cases: in vivo
Zymoseptoria tritici = test: Test B: wheat leaf blotch control on wheat seedlings; conditions: sprayed to run-off on wheat seedlings, inoculated the following day, 100 = 100% disease control, 0 = no control
From the text: (§1) General protocol for preparing test suspensions for Tests A-C: the test compounds were first dissolved in acetone in an amount equal to 3% of the final volume and then suspended at the desired concentration (in ppm) in acetone and purified water (50/50 mix by volume) containing 250 ppm of the surfactant PEG400 (polyhydric alcohol esters). The resulting test suspensions were then used in Tests A-C. The test solution was sprayed to the point of run-off on wheat seedlings. The following day the seedlings were inoculated with a spore suspension of Zymoseptoria tritici (the causal agent of wheat leaf blotch) and incubated in a saturated atmosphere at 24° C. for 48 h, and then moved to a growth chamber at 20° C. for 17 days, after which time disease ratings were made. Results for Tests A-C are given in Table A. In the Table, a rating of 100 indicates 100% disease control and a rating of 0 indicates no disease control (relative to the controls). A dash (-) indicates the compound was not tested.

[1] = test system: Puccinia recondita f. sp. tritici; test: Test C: wheat leaf rust control on wheat seedlings; conditions: sprayed to run-off on wheat seedlings, inoculated the following day, 100 = 100% disease control, 0 = no control
From the text: as §1, with “Puccinia recondita f. sp.” for “Zymoseptoria”, “rust)” for “blotch)”, “20°” for “24°”, “24” for “48”, “6” for “17”

Phakopsora pachyrhizi = test: Test A: Asian soybean rust control on soybean seedlings; conditions: sprayed to run-off on soybean seedlings, inoculated the following day, 100 = 100% disease control, 0 = no control
From the text: General protocol for preparing test suspensions for Tests A-C: the test compounds were first dissolved in acetone in an amount equal to 3% of the final volume and then suspended at the desired concentration (in ppm) in acetone and purified water (50/50 mix by volume) containing 250 ppm of the surfactant PEG400 (polyhydric alcohol esters). The resulting test suspensions were then used in Tests A-C.
The test solution was sprayed to the point of run-off on soybean seedlings. The following day the seedlings were inoculated with a spore suspension of Phakopsora pachyrhizi (the causal agent of Asian soybean rust) and incubated in a saturated atmosphere at 22° C. for 24 h, and then moved to a growth chamber at 22° C. for 8 days, after which time visual disease ratings were made.
Results for Tests A-C are given in Table A. In the Table, a rating of 100 indicates 100% disease control and a rating of 0 indicates no disease control (relative to the controls). A dash (-) indicates the compound was not tested.

[2] = 250 ppm (incl. values marked * = tested at 250 ppm)

| Compound | Test B disease control rating (Zymoseptoria tritici; [2]) | Test C disease control rating ([1]; 10 ppm) [%] | Test A disease control rating (Phakopsora pachyrhizi; 10 ppm) [%] | Test C disease control rating ([1]; 250 ppm) [%] | Test A disease control rating (Phakopsora pachyrhizi; 250 ppm) [%] | other results |
| --- | --- | --- | --- | --- | --- | --- |
| O=C(NCc1ccccc1)OCc1ccc(-c2noc(C(F)(F)F)n2)cc1 [Compound 13] |  |  |  |  |  | Test B disease control rating (Zymoseptoria tritici; 260 ppm): 36%; Test C disease control rating ([1]; 260 ppm): 100%; Test A disease control rating (Phakopsora pachyrhizi; 260 ppm): 100% |
| CCCCNC(=O)OCc1ccc(-c2noc(C(F)(F)F)n2)cc1 [Compound 15] |  |  |  |  |  | Test B disease control rating (Zymoseptoria tritici; 265 ppm): 92%; Test C disease control rating ([1]; 265 ppm): 100%; Test A disease control rating (Phakopsora pachyrhizi; 265 ppm): 100% |
| CC(C)(C)NC(=O)OCc1ccc(-c2noc(C(F)(F)F)n2)cc1 [Compound 16] |  |  |  |  |  | Test B disease control rating (Zymoseptoria tritici; 255 ppm): 19%; Test C disease control rating ([1]; 255 ppm): 100%; Test A disease control rating (Phakopsora pachyrhizi; 255 ppm): 100% |
| NC(=O)OCc1ccc(-c2noc(C(F)(F)F)n2)cc1 [Compound 17, [4-[5-(trifluoromethyl)-1,2,4-oxadiazol-3-yl]phenyl]methyl carbamate] |  |  |  |  |  | Test B disease control rating (Zymoseptoria tritici; 260 ppm): 92%; pest or weed control at 260 ppm ([1]; Puccinia recondita, 168 h, 260 ppm, read-out: Test C disease control rating): 100%; pest or weed control at 260 ppm (Phakopsora pachyrhizi; Phakopsora pachyrhizi, 216 h, 260 ppm, read-out: Test A disease control rating): 100% |
| CCNC(=O)OCCCn1cc(-c2noc(C(F)(F)F)n2)cn1 [Compound 18] | 50* % |  |  |  |  | pest or weed control at 50 ppm ([1]; Puccinia recondita, 168 h, 50 ppm, read-out: Test C disease control rating): 0%; pest or weed control at 50 ppm (Phakopsora pachyrhizi; Phakopsora pachyrhizi, 216 h, 50 ppm, read-out: Test A disease control rating): 38% |
| C#CCN(C)C(=O)OCc1ccc(-c2noc(C(F)(F)F)n2)cc1 [Compound 32] | 0* % | 68 | 100 |  |  |  |
| C#CCCNC(=O)OCc1ccc(-c2noc(C(F)(F)F)n2)cc1 [Compound 33] | 0* % | 100 | 100 |  |  |  |
| CNC(=O)OCc1ccc(-c2noc(C(F)(F)F)n2)s1 [Compound 38] | 80* % | 96 | 94 |  |  |  |
| CCNC(=O)OCc1ccc(-c2noc(C(F)(F)F)n2)s1 [Compound 39] | 93* % | 95 | 96 |  |  |  |
| CNC(=O)OCCc1ccc(-c2noc(C(F)(F)F)n2)cc1 [Compound 42] |  | 99 | 100 |  |  | Test B disease control rating (Zymoseptoria tritici; 10 ppm): 0% |
| CCNC(=O)OCCc1ccc(-c2noc(C(F)(F)F)n2)cc1 [Compound 43, 2-[4-[5-(trifluoromethyl)-1,2,4-oxadiazol-3-yl]phenyl]ethyl N-ethylcarbamate] | 0* % |  |  |  |  | pest or weed control at 10 ppm ([1]; Puccinia recondita, 168 h, 10 ppm, read-out: Test C disease control rating): 97%; pest or weed control at 10 ppm (Phakopsora pachyrhizi; Phakopsora pachyrhizi, 216 h, 10 ppm, read-out: Test A disease control rating): 100% |
| CCCNC(=O)OCc1ccc(-c2noc(C(F)(F)F)n2)s1 [Compound 46] | 97* % | 97 | 99 |  |  |  |
| CC(OC(=O)N(C)C)c1ccc(-c2noc(C(F)(F)F)n2)cc1 (stereo not drawn) [Compound 72] | 0* % | 55 | 100 |  |  |  |
| CCNC(=O)OC(COC)Cc1ccc(-c2noc(C(F)(F)F)n2)cc1 (stereo not drawn) [Compound 75] | 97* % | 91 | 100 |  |  |  |
| C#CCNC(=O)OC(C)c1ccc(-c2noc(C(F)(F)F)n2)cc1 (stereo not drawn) [Compound 76] | 0* % | 99 | 100 |  |  |  |
| CC(OC(=O)NC1CC1)c1ccc(-c2noc(C(F)(F)F)n2)cc1 (stereo not drawn) [Compound 77] |  | 92 | 100 |  |  | Test B disease control rating (Zymoseptoria tritici; 10 ppm): 0% |

| Compound | Test B disease control rating (Zymoseptoria tritici; [2]) | Test C disease control rating ([1]; 10 ppm) [%] | Test A disease control rating (Phakopsora pachyrhizi; 10 ppm) [%] | Test C disease control rating ([1]; 250 ppm) [%] | Test A disease control rating (Phakopsora pachyrhizi; 250 ppm) [%] | other results |
| --- | --- | --- | --- | --- | --- | --- |
| CCOC(=O)NC(=O)OCCc1ccc(-c2noc(C(F)(F)F)n2)cc1 [Compound 78] |  | 91 | 100 |  |  | Test B disease control rating (Zymoseptoria tritici; 10 ppm): 95% |
| CCOC(=O)NC(=O)OCc1ccc(-c2noc(C(F)(F)F)n2)cc1 [Compound 79] |  | 97 | 100 |  |  | Test B disease control rating (Zymoseptoria tritici; 10 ppm): 98% |
| NC(=O)OCc1ccc(-c2noc(C(F)(F)F)n2)cc1F [Compound 85] | 98% |  |  | 100 | 100 |  |
| NC(=O)OCc1ccc(-c2noc(C(F)(F)F)n2)cc1Cl [Compound 86] | 94% |  |  | 100 | 100 |  |
| CC(C)(OC(N)=O)c1ccc(-c2noc(C(F)(F)F)n2)cc1 [Compound 87] | 99% |  |  | 100 | 100 |  |
| NC(=O)OCc1cccc(-c2noc(C(F)(F)F)n2)c1 [Compound 93] | 97% |  |  | 100 | 100 |  |
| CNC(=O)OCc1cccc(-c2noc(C(F)(F)F)n2)c1 [Compound 94] | 1% |  |  | 100 | 69 |  |
| CCNC(=O)OCc1cccc(-c2noc(C(F)(F)F)n2)c1 [Compound 95] | 3% |  |  | 100 | 99 |  |
| C#CCNC(=O)OCc1cccc(-c2noc(C(F)(F)F)n2)c1 [Compound 96] | 64% |  |  | 100 | 100 |  |
| C=CCNC(=O)OCc1cccc(-c2noc(C(F)(F)F)n2)c1 [Compound 97] | 52% |  |  | 100 | 100 |  |
| C=C(C)CNC(=O)OCc1cccc(-c2noc(C(F)(F)F)n2)c1 [Compound 98] | 3% |  |  | 100 | 100 |  |
| CN(C)C(=O)OCc1cccc(-c2noc(C(F)(F)F)n2)c1 [Compound 99] | 0% |  |  | 55 | 0 |  |
| Cc1ccc(C(OC(=O)n2ccnc2)c2ccc(-c3noc(C(F)(F)F)n3)cc2)cc1 (stereo not drawn) [Compound 100] | 98% |  |  | 97 | 100 |  |
| NC(=O)OC(c1ccc(-c2noc(C(F)(F)F)n2)cc1)c1cccc(Cl)c1 (stereo not drawn) [Compound 101] | 90% |  |  | 99 | 100 |  |
| CNC(=O)OC(c1ccc(-c2noc(C(F)(F)F)n2)cc1)c1cccc(Cl)c1 (stereo not drawn) [Compound 102] | 96% |  |  | 90 | 100 |  |
| CCNC(=O)OC(c1ccc(-c2noc(C(F)(F)F)n2)cc1)c1cccc(Cl)c1 (stereo not drawn) [Compound 103] | 20% |  |  | 86 | 100 |  |
